Results taken from patent US20070049564A1 (Wyeth, priority 2005, published 2007).
Converted amounts (≈) assume the structure as drawn. Read-outs that look alike come from different tables or passages of the source.

Assays:
E. coli GC 2231 = test: MIC, broth microdilution; settings: Escherichia coli
E. coli GC 2232 = test: MIC, broth microdilution; settings: Escherichia coli
E. coli GC 2234 = test: MIC, broth microdilution; settings: Escherichia coli
E. coli GC 2272 = test: MIC, broth microdilution; settings: Escherichia coli
Description: (§1) Antimicrobial susceptibility testing. The in vitro activities of the antibiotics are determined by the broth microdilution method as recommended by the National Committee for Clinical Laboratory Standards (NCCLS) (1). Mueller-Hinton II broth (MHBII)(BBL Cockeysville, Md.) is the medium employed in the testing procedures. Microtiter plates containing serial dilutions of each antimicrobial agent are inoculated with each organism to yield the appropriate density (10^5 CFU/ml) in a 100 μl final volume. The plates are incubated for 18-22 hours at 35° C. in ambient air.
(§2) Representative compounds were first incubated in mouse serum for an hour prior to the in vitro testing against a panel of selected gram-positive and gram-negative bacteria strains. All compounds were also pre-incubated in water for an hour prior to testing as control. Representative compounds of Formula I were incubated in human serum prior to MIC determination.

E. coli GC 3226 = test: MIC, broth microdilution; settings: Escherichia coli
S. typhimurium GC 2172 = test: MIC, broth microdilution; settings: Salmonella enterica, TYPHIMURIUM
S. aureus GC 1131 = test: MIC, broth microdilution; settings: Staphylococcus aureus
Description: as §1
Representative compounds were first incubated in mouse serum for an hour prior to the in vitro testing against a panel of selected gram-positive and gram-negative bacteria strains. All compounds were also pre-incubated in water for an hour prior to testing as control.

S. aureus GC 6466 = test: MIC, broth microdilution; settings: Staphylococcus aureus
S. aureus GC 1079 = test: MIC, broth microdilution; settings: Staphylococcus aureus
S. aureus GC 2216 = test: MIC, broth microdilution; settings: Staphylococcus aureus
S. aureus GC 6335 = test: MIC, broth microdilution; settings: Staphylococcus aureus
S. epidermidis GC 4935 = test: MIC, broth microdilution; settings: Staphylococcus epidermidis
E. faecalis GC 2267 = test: MIC, broth microdilution; settings: Enterococcus faecalis
E. faecium GC 4556 = test: MIC, broth microdilution; settings: Enterococcus faecium
E. faecium GC 2243 = test: MIC, broth microdilution; settings: Enterococcus faecium
S. pneumoniae* GC 4465 = test: MIC, broth microdilution; settings: Streptococcus pneumoniae
Description: as §1, §2

S. pneumoniae+ GC 4465 = test: MIC, broth microdilution; settings: Streptococcus pneumoniae
S. pyogenes GC 4563 = test: MIC, broth microdilution; settings: Streptococcus pyogenes
c. albicans GC 3066 = test: MIC, broth microdilution
Staph. aureus Smith = test: In vivo activity (oral, iv; ED50) against Staph. aureus Smith in mice
Description: Representative examples of compounds of Formula I were tested for the oral efficacy using S. aureus Smith in mice.

[1] = read-out: MINIMAL INHIBITORY CONCENTRATION MIC, Human Serum
[2] = read-out: MINIMAL INHIBITORY CONCENTRATION MIC, Mouse Serum
[3] = read-out: MINIMAL INHIBITORY CONCENTRATION MIC, Water

SMILES: CC(C)CC(=O)OCOC(=O)N(CC(=O)Nc1cc(N(C)C)c2c(c1O)C(=O)C1=C(O)[C@]3(O)C(=O)C(C(N)=O)=C(O)[C@@H](N(C)C)[C@@H]3C[C@@H]1C2)C(C)(C)C [Example 53, ({[(2-{[(5aR,6aS,7S,10aS)-9-(aminocarbonyl)-4,7-bis(dimethylamino)-1,8,10a,11-tetrahydroxy-10,12-dioxo-5,5a,6,6a,7,10,10a,12-octahydrotetracen-2-yl]amino}-2-oxoethyl)(tert-butyl)amino]carbonyl}oxy)methyl 3-methylbutanoate]
- MIC (E. coli GC 2231; GC2231, read-out: MINIMAL INHIBITORY CONCENTRATION MIC, Human Serum): 16 µg/mL (≈ 21.5 µM)
- MIC (E. coli GC 2231; GC2231, read-out: MINIMAL INHIBITORY CONCENTRATION MIC, Mouse Serum): 1 µg/mL (≈ 1.34 µM)
- MIC (E. coli GC 2231; GC2231, read-out: MINIMAL INHIBITORY CONCENTRATION MIC, Water): 64 µg/mL (≈ 86 µM)
- MIC (E. coli GC 2232; GC2232, read-out: MINIMAL INHIBITORY CONCENTRATION MIC, Human Serum): 8 µg/mL (≈ 10.8 µM)
- MIC (E. coli GC 2232; GC2232, read-out: MINIMAL INHIBITORY CONCENTRATION MIC, Mouse Serum): 0.5 µg/mL (≈ 0.672 µM)
- MIC (E. coli GC 2232; GC2232, read-out: MINIMAL INHIBITORY CONCENTRATION MIC, Water): 32 µg/mL (≈ 43 µM)
- MIC (E. coli GC 2234; GC2234, read-out: MINIMAL INHIBITORY CONCENTRATION MIC, Human Serum): 8 µg/mL (≈ 10.8 µM)
- MIC (E. coli GC 2234; GC2234, read-out: MINIMAL INHIBITORY CONCENTRATION MIC, Mouse Serum): 0.5 µg/mL (≈ 0.672 µM)
- MIC (E. coli GC 2234; GC2234, read-out: MINIMAL INHIBITORY CONCENTRATION MIC, Water): 16 µg/mL (≈ 21.5 µM)
- MIC (E. coli GC 2272; GC2272, read-out: MINIMAL INHIBITORY CONCENTRATION MIC, Human Serum): 8 µg/mL (≈ 10.8 µM)
- MIC (E. coli GC 2272; GC2272, read-out: MINIMAL INHIBITORY CONCENTRATION MIC, Mouse Serum): 0.25 µg/mL (≈ 0.336 µM)
- MIC (E. coli GC 2272; GC2272, read-out: MINIMAL INHIBITORY CONCENTRATION MIC, Water): 16 µg/mL (≈ 21.5 µM)
- MIC (E. coli GC 3226; GC3226, read-out: MINIMAL INHIBITORY CONCENTRATION MIC, Human Serum): 16 µg/mL (≈ 21.5 µM)
- MIC (E. coli GC 3226; GC3226, read-out: MINIMAL INHIBITORY CONCENTRATION MIC, Mouse Serum): 1 µg/mL (≈ 1.34 µM)
- MIC (E. coli GC 3226; GC3226, read-out: MINIMAL INHIBITORY CONCENTRATION MIC, Water): 32 µg/mL (≈ 43 µM)
- MIC (S. typhimurium GC 2172; [1]): 64 µg/mL (≈ 86 µM)
- MIC (S. typhimurium GC 2172; [2]): 4 µg/mL (≈ 5.38 µM)
- MIC (S. typhimurium GC 2172; [3]): > 64 µg/mL
- MIC (S. aureus GC 1131; GC1131, read-out: MINIMAL INHIBITORY CONCENTRATION MIC, Human Serum): 1 µg/mL (≈ 1.34 µM)
- MIC (S. aureus GC 1131; GC1131, read-out: MINIMAL INHIBITORY CONCENTRATION MIC, Mouse Serum): 1 µg/mL (≈ 1.34 µM)
- MIC (S. aureus GC 1131; GC1131, read-out: MINIMAL INHIBITORY CONCENTRATION MIC, Water): 1 µg/mL (≈ 1.34 µM)
- MIC (S. aureus GC 6466; GC6466, read-out: MINIMAL INHIBITORY CONCENTRATION MIC, Human Serum): 0.5 µg/mL (≈ 0.672 µM)
- MIC (S. aureus GC 6466; GC6466, read-out: MINIMAL INHIBITORY CONCENTRATION MIC, Mouse Serum): 0.5 µg/mL (≈ 0.672 µM)
- MIC (S. aureus GC 6466; GC6466, read-out: MINIMAL INHIBITORY CONCENTRATION MIC, Water): 0.5 µg/mL (≈ 0.672 µM)
- MIC (S. aureus GC 1079; GC1079, read-out: MINIMAL INHIBITORY CONCENTRATION MIC, Human Serum): 0.5 µg/mL (≈ 0.672 µM)
- MIC (S. aureus GC 1079; GC1079, read-out: MINIMAL INHIBITORY CONCENTRATION MIC, Mouse Serum): 0.5 µg/mL (≈ 0.672 µM)
- MIC (S. aureus GC 1079; GC1079, read-out: MINIMAL INHIBITORY CONCENTRATION MIC, Water): 1 µg/mL (≈ 1.34 µM)
- MIC (S. aureus GC 2216; GC2216, read-out: MINIMAL INHIBITORY CONCENTRATION MIC, Human Serum): 0.5 µg/mL (≈ 0.672 µM)
- MIC (S. aureus GC 2216; GC2216, read-out: MINIMAL INHIBITORY CONCENTRATION MIC, Mouse Serum): 0.5 µg/mL (≈ 0.672 µM)
- MIC (S. aureus GC 2216; GC2216, read-out: MINIMAL INHIBITORY CONCENTRATION MIC, Water): 1 µg/mL (≈ 1.34 µM)
- MIC (S. aureus GC 6335; GC6335, read-out: MINIMAL INHIBITORY CONCENTRATION MIC, Human Serum): 0.5 µg/mL (≈ 0.672 µM)
- MIC (S. aureus GC 6335; GC6335, read-out: MINIMAL INHIBITORY CONCENTRATION MIC, Mouse Serum): 0.5 µg/mL (≈ 0.672 µM)
- MIC (S. aureus GC 6335; GC6335, read-out: MINIMAL INHIBITORY CONCENTRATION MIC, Water): 1 µg/mL (≈ 1.34 µM)
- MIC (S. epidermidis GC 4935; GC4935, read-out: MINIMAL INHIBITORY CONCENTRATION MIC, Human Serum): 2 µg/mL (≈ 2.69 µM)
- MIC (S. epidermidis GC 4935; GC4935, read-out: MINIMAL INHIBITORY CONCENTRATION MIC, Mouse Serum): 1 µg/mL (≈ 1.34 µM)
- MIC (S. epidermidis GC 4935; GC4935, read-out: MINIMAL INHIBITORY CONCENTRATION MIC, Water): 2 µg/mL (≈ 2.69 µM)
- MIC (E. faecalis GC 2267; GC2267, read-out: MINIMAL INHIBITORY CONCENTRATION MIC, Human Serum): 2 µg/mL (≈ 2.69 µM)
- MIC (E. faecalis GC 2267; GC2267, read-out: MINIMAL INHIBITORY CONCENTRATION MIC, Mouse Serum): 0.5 µg/mL (≈ 0.672 µM)
- MIC (E. faecalis GC 2267; GC2267, read-out: MINIMAL INHIBITORY CONCENTRATION MIC, Water): 4 µg/mL (≈ 5.38 µM)
- MIC (E. faecium GC 4556; GC4556, read-out: MINIMAL INHIBITORY CONCENTRATION MIC, Human Serum): 2 µg/mL (≈ 2.69 µM)
- MIC (E. faecium GC 4556; GC4556, read-out: MINIMAL INHIBITORY CONCENTRATION MIC, Mouse Serum): 0.5 µg/mL (≈ 0.672 µM)
- MIC (E. faecium GC 4556; GC4556, read-out: MINIMAL INHIBITORY CONCENTRATION MIC, Water): 2 µg/mL (≈ 2.69 µM)
- MIC (E. faecium GC 2243; GC2243, read-out: MINIMAL INHIBITORY CONCENTRATION MIC, Human Serum): 0.25 µg/mL (≈ 0.336 µM)
- MIC (E. faecium GC 2243; GC2243, read-out: MINIMAL INHIBITORY CONCENTRATION MIC, Mouse Serum): 0.25 µg/mL (≈ 0.336 µM)
- MIC (E. faecium GC 2243; GC2243, read-out: MINIMAL INHIBITORY CONCENTRATION MIC, Water): 0.5 µg/mL (≈ 0.672 µM)
- MIC (S. pneumoniae* GC 4465; [1]): 0.25 µg/mL (≈ 0.336 µM)
- MIC (S. pneumoniae* GC 4465; [2]): 0.12 µg/mL (≈ 0.161 µM)
- MIC (S. pneumoniae* GC 4465; [3]): 0.12 µg/mL (≈ 0.161 µM)
- MIC (S. pneumoniae+ GC 4465; [1]): 1 µg/mL (≈ 1.34 µM)
- MIC (S. pneumoniae+ GC 4465; [2]): 2 µg/mL (≈ 2.69 µM)
- MIC (S. pneumoniae+ GC 4465; [3]): 2 µg/mL (≈ 2.69 µM)
- MIC (S. pyogenes GC 4563; GC4563, read-out: MINIMAL INHIBITORY CONCENTRATION MIC, Human Serum): 0.25 µg/mL (≈ 0.336 µM)
- MIC (S. pyogenes GC 4563; GC4563, read-out: MINIMAL INHIBITORY CONCENTRATION MIC, Mouse Serum): 0.12 µg/mL (≈ 0.161 µM)
- MIC (S. pyogenes GC 4563; GC4563, read-out: MINIMAL INHIBITORY CONCENTRATION MIC, Water): 0.25 µg/mL (≈ 0.336 µM)
- MIC (c. albicans GC 3066; Candida albicans, GC3066, read-out: MINIMAL INHIBITORY CONCENTRATION MIC): > 64 µg/mL
- MINIMAL INHIBITORY CONCENTRATION MIC (c. albicans GC 3066; Human Serum): >64 UG/ML
- MINIMAL INHIBITORY CONCENTRATION MIC (c. albicans GC 3066; Mouse Serum): >64 UG/ML
- ED50 (Staph. aureus Smith; Staphylococcus aureus, in Mus musculus, iv, read-out: ED50 SIV (Staph aureus Smith)): 0.73 mg/kg
- ED50 (Staph. aureus Smith; Staphylococcus aureus, in Mus musculus, po, read-out: ED50 SOD (Staph aureus Smith)): 5.08 mg/kg
- ED50 (Staph. aureus Smith; Staphylococcus aureus, in Mus musculus, po, read-out: ED50 Staph Smith SOD): 5.08 mg/kg
- ED50 (Staph. aureus Smith; iv, read-out: ED50 Staph Smith SIV): 0.73 mg/kg
